Where two headings read alike, the source gives them in different places. Marks after values point to notes of the source that are not given here.
Test system: C57BL/6 mouse model having STZ-HFD feed-induced diabetes combined NASH
Assay type: in vivo
Conditions: STZ+HFD C57BL/6 mice; for Fasting blood glucose / Ballooning lesion (score) / Inflammatory cell infiltration (score) / Steatosis (score) / Total score of NAS / Fibrosis percentage / % HbAC (glycosylated hemoglobin) / ALT / AST / HDL-c / LDL-c / TC / TG / Percentage of decrease in % HbAC: Mean ± SEM; for Ballooning lesion (score) / Inflammatory cell infiltration (score) / Steatosis (score) / Total score of NAS / Fibrosis percentage / % HbAC (glycosylated hemoglobin) / ALT / AST / HDL-c / LDL-c / TC / TG: 7 weeks; for Ballooning lesion (score) / Inflammatory cell infiltration (score) / Steatosis (score) / Total score of NAS: liver H&E; for Ballooning lesion (score) / Inflammatory cell infiltration (score) / Steatosis (score): NAS criteria; for Fibrosis percentage: liver sirius red staining; for % HbAC (glycosylated hemoglobin): peripheral blood; for ALT / AST / HDL-c / LDL-c / TC / TG: serum; for HbA1c % decreased by, taking the HbA1C % of the model group as the baseline value: FIG. 20; for Percentage of decrease in % HbAC: model group as baseline; for Number of animal deaths: 13 enrolled
Description: According to the dosage regimen, a certain amount of Tirzepatide and BG128 were weighed and the vehicle (pH=7.0, 20 mM sodium citrate buffer) was added to formulated to the corresponding concentration.
• Germline: C57BL/6 • Grade: SPF level • Number and gender: 30 pregnant female mice • Supplier: Shanghai Jihui Laboratory Animal Care Co., Ltd. 1.3.2 Animal Feeding Management
Animals were kept in the barrier system, the environmental conditions in the animal room were controlled as room temperature of 20° C.-26° C. and humidity of 40%-70%, and the breeders recorded once every morning and afternoon. Free drinking and normal feeding.
Newborn male mice were subcutaneously injected with STZ (100 μg/mouse) within 48 h of birth and fed by the female mice for four weeks, then the fasting blood glucose of the male mice was determined.
10 newborn male mice were selected, without STZ injection, and fed by the female mice for four weeks. The male mice were separated into cages and fed with normal maintenance feed and used as the normal control group; other mice were fed with HFD feed for one week, the fasting blood glucose of the animals was determined, and according to the fasting blood glucose and body weight, the animals were randomly grouped into: normal control group, model group, Tirzepatide—0.15 mg/kg group, BG128—0.05 mg/kg group, BG128—0.15 mg/kg group, and BG128—0.5 mg/kg group, and see Table 12 for details.
Administration began on the first day of week 2 of HFD feed feeding, and the experiment was ended after 7 weeks of continuous administration.
Observation was performed at the start of the experiment once a day until the end of the experiment.
The animals were weighed once every three days from the time of feeding with HFD feed until the end of the experiment.
The food intake of the animals was recorded from the time of feeding with HFD feed until the end of the experiment. The remaining amount was weighed before administration each time.
The fasting blood glucose was determined using the Roche blood glucose meter after 4 weeks of breast-feeding by the female mouse (that is, before HFD feeding), before administration, and 1 week, 2 weeks, 3 weeks, 4 weeks, 5 weeks, 6 weeks and 7 weeks after administration and at the end point of experiment.
3 days after the last administration, the animals were weighed and fasted for 6 hours; all experimental animals were anesthetized by intraperitoneal injection of pentobarbital sodium, non-anticoagulated whole blood was collected through the orbital venous plexus, stood at room temperature for 30 minutes, and centrifuged at 5000 rpm for 5 minutes, the serum was separated and frozen at −80° C. for the biochemical determination; and EDTA-K2 anticoagulated whole blood was collected through the orbital venous plexus and placed on wet ice for the determination of HbA1C content.
The serum sample was taken from −80° C., and the contents of ALT, AST, TG, TC, HDL-c and LDL-c in serum and HbA1C in whole blood were determined by Hitachi 7060 automatic biochemical detector, and the content of insulin was determined by enzyme-linked immunosorbent assay kit.
The mice were dissected according to procedure. After perfusion with pre-cooled normal saline, the liver was taken, photographed, weighed, soaked in 10% formalin and fixed for pathological HE staining. Liver paraffin sections of all animals were stained with HE according to KCI pathological staining standard SOP. All the stained sections were panoramically scanned by NanoZoomer Digital Pathology (S210, Hamamaci, Japan) scanner, and then observed at different magnifications by selecting different fields of view.
The mice were dissected according to procedure. After perfusion with pre-cooled normal saline, the liver was taken, photographed, weighed, soaked in 10% formalin and fixed for pathological sirius red (SR) staining. Liver paraffin sections were stained with SR according to KCI pathological staining standard SOP.

[1] = 0.05 mg/kg s.c. once every three days
[2] = 0.15 mg/kg s.c. once every three days
[3] = 0.5 mg/kg s.c. once every three days

Structure (SMILES): CNC(CCCCNC(=O)COCCOCCOCCNC(=O)COCCOCCOCCNC(=O)CCC(NC(=O)CC(=O)O)C(=O)O)C(N)=O (centres unmarked) [BG128]
- Fasting blood glucose (0.05 mg/kg group, Before HFD (baseline)): 18.28 ± 1.18 mmol/L
- Fasting blood glucose (0.05 mg/kg group, Before administration (baseline)): 25.59 ± 0.91 mmol/L
- Ballooning lesion (score) [1]: 0.00 ± 0.00
- Inflammatory cell infiltration (score) [1]: 0.91 ± 0.08ª
- Steatosis (score) [1]: 0.52 ± 0.12ª
- Total score of NAS [1]: 1.42 ± 0.14ª
- Fibrosis percentage [1]: 1.11 ± 0.05^a %
- % HbAC (glycosylated hemoglobin) [1]: 1.00 ± 0.23
- ALT [1]: 73.97 ± 9.20 U/L
- AST [1]: 155.44 ± 10.85 U/L
- HDL-c [1]: 2.30 ± 0.09 mmol/L
- LDL-c [1]: 0.56 ± 0.03^b mmol/L
- TC [1]: 3.81 ± 0.15^c mmol/L
- TG [1]: 1.09 ± 0.20^b mmol/L
- Fasting blood glucose (0.05 mg/kg s.c. once every three days, Administration for 1 week): 15.62 ± 1.42^a mmol/L
- Fasting blood glucose (0.05 mg/kg s.c. once every three days, Administration for 2 weeks): 14.13 ± 1.61^a mmol/L
- Fasting blood glucose (0.05 mg/kg s.c. once every three days, Administration for 3 weeks): 16.89 ± 1.85^a mmol/L
- Fasting blood glucose (0.05 mg/kg s.c. once every three days, Administration for 4 weeks): 12.89 ± 1.83^a mmol/L
- Fasting blood glucose (0.05 mg/kg s.c. once every three days, Administration for 5 weeks): 18.32 ± 1.62^a mmol/L
- Fasting blood glucose (0.05 mg/kg s.c. once every three days, Administration for 6 weeks): 21.82 ± 2.11^a mmol/L
- Fasting blood glucose (0.05 mg/kg s.c. once every three days, Administration for 7 weeks): 18.89 ± 1.89^a mmol/L
- Fasting blood glucose (0.05 mg/kg s.c. once every three days, Endpoint): 15.81 ± 1.83^a mmol/L
- serum insulin concentration (0.05 mg/kg s.c. once every three days, FIG. 19): decreased
- HbA1c % decreased by, taking the HbA1C % of the model group as the baseline value [1]: 0.97%
- Percentage of decrease in % HbAC [1]: −0.97 ± 0.23
- Fasting blood glucose (0.15 mg/kg group, Before HFD (baseline)): 17.69 ± 0.81 mmol/L
- Fasting blood glucose (0.15 mg/kg group, Before administration (baseline)): 25.71 ± 0.91 mmol/L
- tolerance of model animals [2]: good tolerance
- Ballooning lesion (score) [2]: 0.00 ± 0.00ª
- Inflammatory cell infiltration (score) [2]: 0.90 ± 0.06ª
- Steatosis (score) [2]: 0.46 ± 0.13ª
- Total score of NAS [2]: 1.36 ± 0.15ª
- Fibrosis percentage [2]: 1.10 ± 0.04^b %
- % HbAC (glycosylated hemoglobin) [2]: 1.31 ± 0.19
- ALT [2]: 67.58 ± 7.73^a U/L
- AST [2]: 152.48 ± 6.56^a U/L
- HDL-c [2]: 1.83 ± 0.22 mmol/L
- LDL-c [2]: 0.65 ± 0.10^c mmol/L
- TC [2]: 3.25 ± 0.12^c mmol/L
- TG [2]: 0.84 ± 0.12^b mmol/L
- Fasting blood glucose (0.15 mg/kg s.c. once every three days, Administration for 1 week): 15.43 ± 1.66^a mmol/L
- Fasting blood glucose (0.15 mg/kg s.c. once every three days, Administration for 2 weeks): 14.61 ± 1.45^a mmol/L
- Fasting blood glucose (0.15 mg/kg s.c. once every three days, Administration for 3 weeks): 14.83 ± 1.49^a mmol/L
- Fasting blood glucose (0.15 mg/kg s.c. once every three days, Administration for 4 weeks): 14.52 ± 2.09^a mmol/L
- Fasting blood glucose (0.15 mg/kg s.c. once every three days, Administration for 5 weeks): 15.75 ± 1.81^a mmol/L
- Fasting blood glucose (0.15 mg/kg s.c. once every three days, Administration for 6 weeks): 17.88 ± 2.05^a mmol/L
- Fasting blood glucose (0.15 mg/kg s.c. once every three days, Administration for 7 weeks): 17.26 ± 1.97^a mmol/L
- Fasting blood glucose (0.15 mg/kg s.c. once every three days, Endpoint): 16.85 ± 2.04^a mmol/L
- serum insulin concentration (0.15 mg/kg s.c. once every three days, FIG. 19): statistically significant compared with the db/db-NDJ group
- HbA1c % decreased by, taking the HbA1C % of the model group as the baseline value [2]: 0.66%
- Percentage of decrease in % HbAC [2]: −0.66 ± 0.19
- Fasting blood glucose (0.5 mg/kg group, Before HFD (baseline)): 18.59 ± 0.88 mmol/L
- Fasting blood glucose (0.5 mg/kg group, Before administration (baseline)): 25.81 ± 1.08 mmol/L
- tolerance of model animals (0.50 mg/kg s.c. once every three days): good tolerance
- Ballooning lesion (score) [3]: 0.00 ± 0.00
- Inflammatory cell infiltration (score) [3]: 1.03 ± 0.05ª
- Steatosis (score) [3]: 0.33 ± 0.08ª
- Total score of NAS [3]: 1.36 ± 0.10ª
- Fibrosis percentage [3]: 1.07 ± 0.05^c %
- % HbAC (glycosylated hemoglobin) [3]: 0.94 ± 0.25^a
- ALT [3]: 58.46 ± 5.38^b U/L
- AST [3]: 150.54 ± 6.26^a U/L
- HDL-c [3]: 2.13 ± 0.13 mmol/L
- LDL-c [3]: 0.62 ± 0.03^c mmol/L
- TC [3]: 3.53 ± 0.09^c mmol/L
- TG [3]: 0.88 ± 0.14^b mmol/L
- Fasting blood glucose (0.5 mg/kg s.c. once every three days, Administration for 1 week): 11.39 ± 0.86^a mmol/L
- Fasting blood glucose (0.5 mg/kg s.c. once every three days, Administration for 2 weeks): 12.82 ± 1.12^a mmol/L
- Fasting blood glucose (0.5 mg/kg s.c. once every three days, Administration for 3 weeks): 13.35 ± 1.37^a mmol/L
- Fasting blood glucose (0.5 mg/kg s.c. once every three days, Administration for 4 weeks): 11.39 ± 1.20^a mmol/L
- Fasting blood glucose (0.5 mg/kg s.c. once every three days, Administration for 5 weeks): 12.31 ± 1.47^a mmol/L
- Fasting blood glucose (0.5 mg/kg s.c. once every three days, Administration for 6 weeks): 12.17 ± 1.70^abd mmol/L
- Fasting blood glucose (0.5 mg/kg s.c. once every three days, Administration for 7 weeks): 10.45 ± 1.34^acd mmol/L
- Fasting blood glucose (0.5 mg/kg s.c. once every three days, Endpoint): 12.27 ± 1.61^a mmol/L
- serum insulin concentration (0.5 mg/kg s.c. once every three days, FIG. 19): statistically significant compared with the db/db-NDJ group
- HbA1c % decreased by, taking the HbA1C % of the model group as the baseline value [3]: 1.04%
- Percentage of decrease in % HbAC [3]: −1.04 ± 0.25
- Number of animal deaths (Group-3/Group-5, 0.15 mg/kg s.c. once every three days): 0
- Number of animal deaths (Group-4, 0.05 mg/kg s.c. once every three days): 2 (Day 45, 51)
- Number of animal deaths (Group-6, 0.5 mg/kg s.c. once every three days): 0
- body weight after the first administration (Tirzepatide 0.15 mg/kg, BG128 0.05, 0.15, 0.5 mg/kg s.c., FIG. 16): positively correlated with the administration dose
- food intake compared with Tirzepatide (equal dose (0.15 mg/kg s.c.), FIG. 17): lower than that of the Trizepatide administration animals in the group with the equal dose
- effect on serum insulin compared with Tirzepatide (equal dose (0.15 mg/kg s.c.), FIG. 19): better than that of the Tirzepatide group at an equal dose

From patent US12215133B2 (BrightGene Bio-Medical Technology Co., Ltd., priority 2021, dated 2025)
